What all share (assay): NCI-60 cell line screen, 48 h
Experiment [1] concerns SF-539.
Experiment [2] has as its system LOX IMVI.
For experiment [3], the system named is SK-MEL-28.
The test system of experiment [4] is MOLT-4.
Experiment [5] deals with OVCAR-8.
Experiment [6] relates to ACHN.
Experiment [7] concerns XF498.
Experiment [8] concerns HL-60.
Experiment [9] deals with RPMI-8226.
The subject of experiment [10] is M14.
In experiment [11] the test system is 786-0.
Experiment [12] concerns SNB-19.
Experiment [13] concerns SW-620.
Experiment [14] deals with OVCAR-4.
Experiment [15] relates to HT-29.
Experiment [16] has as its system SK-MEL-5.
Experiment [17] concerns SK-OV-3.
In experiment [18] the test system is BT-549.
Experiment [19] relates to MDA-MB-231.
Experiment [20] concerns PC-3.

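Each compound was tested at five concentrations against cells in 96-well plates for 48 hours. At the GI50, growth is halved.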 Active and inactive are the calls of the source. Cut-off read from the data, not from the text of the source: active = GI50 up to about 1.1 µM and inactive = higher. Bounds are passed on as bounds.

Regarding `Cc1cc(NCCCCCCCCNc2cc(C)nc3cc(N(C)C)ccc23)c2ccc(N(C)C)cc2n1`, the GI50 is 3.23 µM (inactive) in experiment [1]; 2.37 µM (inactive) in [2]; 0.933 µM (active) in experiment [3]; 2 µM (inactive) in experiment [4]; 6.11 µM (inactive) in [5]; 12.3 µM (inactive) in experiment [6]. Also, the GI50 is 1.98 µM (inactive) in experiment [7]; 0.711 µM (active) in experiment [8]; 0.736 µM (active) in [9]; 3.73 µM (inactive) in experiment [10]; 7.16 µM (inactive) in [11]; 3.09 µM (inactive) in [12]. Further, the GI50 is 6.81 µM (inactive) in experiment [13] and 4.88 µM (inactive) in experiment [14].

For `O=C(c1ccncc1)n1nc(-c2ccccc2)c(/N=N/c2ccccc2[N+](=O)[O-])c1-c1ccccc1`, the GI50 in experiment [1] is 50.8 µM (inactive); in experiment [15] it was 26.2 µM (inactive); in experiment [16], 21.6 µM (inactive); in experiment [3], > 100 µM (inactive); in experiment [4], 38.9 µM (inactive); in [5], 56.1 µM (inactive). Moreover, the GI50 was 33.5 µM (inactive) in experiment [7]; 46.2 µM (inactive) in experiment [8]; > 100 µM (inactive) in experiment [17]; 28.3 µM (inactive) in experiment [9]; > 100 µM (inactive) in experiment [10]; 76 µM (inactive) in [11]. Moreover, the GI50 in [12] is 36.9 µM (inactive); in experiment [13], 67.3 µM (inactive); in [14], > 100 µM (inactive).

Take `COc1cc(C(O)C(=O)c2cnc3cc([N+](=O)[O-])ccc3n2)ccc1O` (centres undefined): the GI50 in experiment [1] was > 100 µM (inactive); in experiment [15] it was > 100 µM (inactive); in [2] it was 77.8 µM (inactive); in [16], > 100 µM (inactive); in experiment [4], > 100 µM (inactive); in [5], > 100 µM (inactive). For the same molecule, the GI50 in experiment [6] was > 100 µM (inactive); in [7] it was > 100 µM (inactive); in experiment [8] it was 86.5 µM (inactive); in [17], > 100 µM (inactive); in [9], > 100 µM (inactive); in experiment [10] it was > 100 µM (inactive). For the same molecule, the GI50 in experiment [11], in experiment [12], in experiment [13] and in experiment [14] was > 100 µM (inactive) throughout.

For `O=C(Cc1nc2c3c(ccc2nc1O)C(=O)c1ccccc1C3=O)C(=O)Nc1ccccc1[N+](=O)[O-]`, the GI50 was 17.6 µM (inactive) in experiment [1]; 19.5 µM (inactive) in experiment [15]; 16.5 µM (inactive) in experiment [2]; 18.3 µM (inactive) in experiment [16]; 16.1 µM (inactive) in [3]; 4.22 µM (inactive) in experiment [4]. Further, the GI50 was 17.1 µM (inactive) in experiment [5]; 15.7 µM (inactive) in experiment [6]; 12.6 µM (inactive) in experiment [7]; 14.5 µM (inactive) in [8]; 60 µM (inactive) in experiment [17]; 11.4 µM (inactive) in experiment [9]. The GI50 in [10] was 16.3 µM (inactive); in experiment [11], 15.3 µM (inactive); in experiment [12] it was 16.6 µM (inactive); in experiment [13], 12.3 µM (inactive); in [14], 13.2 µM (inactive).

For `Cc1ccc(NC(=O)C(=O)CC(=O)C2CCOC2=O)c(C)c1` (centres undefined), the GI50 in experiment [1], in [15], in [2], in experiment [16], in [3] and in experiment [5] was > 100 µM (inactive) in each case. Further, the GI50 in experiment [6], in experiment [7], in experiment [8], in [17], in experiment [9] and in experiment [10] was > 100 µM (inactive) each time. Further, the GI50 in [11], in [12], in [13] and in experiment [14] was > 100 µM (inactive) throughout.

`CCCCCC(O)(CCCCC)CCCCCCCCC1=C(O)C(=O)c2ccc(=O)[nH]c2C1=O`: the GI50 in [1] is 7.6 µM (inactive); in experiment [15], 15.3 µM (inactive); in experiment [2] it was 11.7 µM (inactive); in experiment [16], 3.78 µM (inactive); in experiment [3], 8.32 µM (inactive); in experiment [4] it was 6.3 µM (inactive). Besides, the GI50 in experiment [5] was 9.06 µM (inactive); in experiment [6], 6.37 µM (inactive); in experiment [7], 3.6 µM (inactive); in [8] it was 4.92 µM (inactive); in experiment [17], 15.9 µM (inactive); in experiment [9], 4.12 µM (inactive). The GI50 is 10 µM (inactive) in experiment [10]; 8.63 µM (inactive) in experiment [11]; 5.48 µM (inactive) in [12]; 8 µM (inactive) in [13]; 1.87 µM (inactive) in experiment [14].

Regarding `COc1cc2c(cc1OC(=O)CC(C)O)C1C(OC2=O)C(OC(C)=O)C=C2CCN(C)[C@H]21` (some centres undefined), the GI50 in experiment [1] was 21.4 µM (inactive); in [15], > 100 µM (inactive); in [2], 40.4 µM (inactive); in experiment [16] it was 38.1 µM (inactive); in experiment [3] it was 29 µM (inactive); in [4] it was 47.2 µM (inactive). The GI50 in [5] is 39.9 µM (inactive); in experiment [6], 18 µM (inactive); in experiment [7], 20.1 µM (inactive); in [17] it was 15.9 µM (inactive); in experiment [10], 68.5 µM (inactive); in [11], 17.9 µM (inactive). The GI50 in [12] was 20.7 µM (inactive); in experiment [13], > 100 µM (inactive); in experiment [14], 40.5 µM (inactive).

Turning to `O=c1oc2c(O)c(O)cc3c(=O)oc4c(O)c(O)cc1c4c23` [ELLAGIC ACID], the GI50 in experiment [1] was > 10 µM (inactive); in experiment [15] it was > 10 µM (inactive); in experiment [2], 93.5 µM (inactive); in experiment [16] it was > 10 µM (inactive); in experiment [3], > 10 µM (inactive); in [4], > 10 µM (inactive). In addition, the GI50 was 18.6 µM (inactive) in experiment [5]; 45.8 µM (inactive) in experiment [6]; 35.2 µM (inactive) in experiment [7]; > 10 µM (inactive) in experiment [8]; 73.1 µM (inactive) in experiment [17]; > 10 µM (inactive) in experiment [9]. The GI50 in [10] is 18.5 µM (inactive); in experiment [11], 27.2 µM (inactive); in experiment [12], 18.7 µM (inactive); in [13], > 10 µM (inactive); in experiment [14], 31.6 µM (inactive).

Turning to `COc1ccc(-c2cc(O)c3ccc(F)cc3n2)cc1`, the GI50 in [1], in experiment [15], in [2], in experiment [16], in experiment [3] and in [4] was > 100 µM (inactive) in each case. Further, the GI50 in experiment [5], in experiment [6], in experiment [7], in experiment [8], in experiment [17] and in experiment [9] was > 100 µM (inactive) each time. Besides, the GI50 in [10], in experiment [11], in experiment [12], in experiment [13] and in [14] was > 100 µM (inactive) each time.

Consider `COc1cc(/C=C\c2ccc(Cl)cc2)cc(OC)c1OC`, for which the GI50 is 0.147 µM (active) in experiment [1]; 0.0459 µM (active) in experiment [15]; 0.175 µM (active) in experiment [2]; 0.025 µM (active) in experiment [16]; 0.454 µM (active) in experiment [3]; 0.0762 µM (active) in experiment [4]. The GI50 in [5] was 0.363 µM (active); in experiment [6], 1.38 µM (inactive); in experiment [7] it was 0.274 µM (active); in experiment [8], 0.0251 µM (active); in experiment [17] it was 0.228 µM (active); in experiment [9] it was 0.143 µM (active). Also, the GI50 in experiment [10] is 0.0647 µM (active); in experiment [11], 0.113 µM (active); in experiment [12], 0.322 µM (active); in experiment [13], 0.0552 µM (active); in [14] it was 5.74 µM (inactive).

As for `Cc1ccc2c(n1)C(=O)c1cc(C)c(C)cc1C2=O`, the GI50 was > 100 µM (inactive) in experiment [18]; 45.6 µM (inactive) in [19]; > 100 µM (inactive) in [20]; > 100 µM (inactive) in experiment [1]; 36.9 µM (inactive) in experiment [15]; 68.4 µM (inactive) in experiment [2]. In addition, the GI50 in [16] is 12.4 µM (inactive); in experiment [3] it was > 100 µM (inactive); in experiment [4], > 100 µM (inactive); in experiment [5], 54.3 µM (inactive); in experiment [6], > 100 µM (inactive); in experiment [8] it was 36 µM (inactive). For the same molecule, the GI50 in experiment [17] is > 100 µM (inactive); in experiment [9] it was > 100 µM (inactive); in experiment [10] it was > 100 µM (inactive); in experiment [11] it was 62.1 µM (inactive); in [12], > 100 µM (inactive); in [13] it was 73.6 µM (inactive). Moreover, the GI50 in experiment [14] is 70.3 µM (inactive).

With `CCCC(=O)OC[n+]1cccc(-c2c(COC(=O)NC(C)C)c(COC(=O)NC(C)C)c3n2CCC3)c1`, the GI50 is > 79.6 µM (inactive) in experiment [18]; > 74.8 µM (inactive) in [19]; > 86.7 µM (inactive) in experiment [20]; 28.8 µM (inactive) in experiment [1]; > 68.2 µM (inactive) in experiment [15]; 35.2 µM (inactive) in experiment [2]. The GI50 in [16] was 69.7 µM (inactive); in [3], > 100 µM (inactive); in experiment [4], 13.6 µM (inactive); in experiment [5] it was 55.7 µM (inactive); in experiment [6], 30.7 µM (inactive); in experiment [8] it was 15.7 µM (inactive). Moreover, the GI50 in experiment [17] was > 100 µM (inactive); in [9], 32.3 µM (inactive); in experiment [10], 50.9 µM (inactive); in experiment [11] it was 37.5 µM (inactive); in experiment [12] it was > 100 µM (inactive); in [13] it was 48.2 µM (inactive). Further, in [14], the GI50 was 58.6 µM (inactive).

For the origin of these results see ChEMBL document CHEMBL1201862, “PubChem BioAssay data set” (2004).
